{"source": "patent US6635620B1", "about": "“Hydroxyproline derivatives” (Japan Bioproducts Ind. Co., Ltd., priority 1998, dated 2003)", "system": "BHK-21 cells", "assay": "BHK-21 cell proliferation (cell growth) activity", "format": "cell-based, hamster", "details": "3 days culture, compared with medium control", "protocol": "Cell growth activities of the samples were measured as BHK (baby hamster kidney) −21 cell proliferation activity, following the known method (Planta Med., 62,115-118,1996, and others). In detail, BHK-21 cells (1×10^4) were cultured in Eagle's minimum essential medium supplemented with 5% fetal bovine serum and 2 mM glutamine, for 3 days at 37° C. with different concentration (μg/ml) of test samples in 5% CO2/air at pH 7.2. The cells were treated with a mixture of trypsin and 0.02% EDTA solution to detach the cells from each well. The cells were harvested and the numbers of total viable cells were counted. The viability of the cells was determined by the method of dye-exclusion test using 0.4% trypan blue solution. The cell growth activity (%) was determined by comparing with the control cells (medium control).", "data": [{"smiles": "O=C1NC(CO)C(=O)N2C[C@H](O)CC12", "note": "(stereo partly shown) [Compound 2, 3′-Hydroxymethyl-4-hydroxypyrrolido [1,2-f] 2′, 5′-piperazinedione]", "values": [{"measurement": "cell growth activity", "result": "showed the cell growth activity"}]}]}
